Counter-ions that a name gives are not always drawn.
Tests used:
rabbit aortic strips [1] = test: Ca+2 antagonism: relaxation of potassium-contracted rabbit aortic strips; type: cell-based; settings: Oryctolagus cuniculus; 10^-5 M bath concentration; strips contracted with 100 millimoles potassium ion; read-out: percent relaxation (P.R.)
Description: After a stable active tension has developed in the strip, as measured by Statham UC-2 force transducers and recorded on an eight channel Beckman Dynograph Polygraphic Recorder, an amount of the antagonist was added to the organ bath to make a 10^-5 molar concentration of antagonist. The […] effect, expressed as percent relaxation, was taken from the mean of at least two experiments. […] A Ca^+2 antagonist producing a 20 percent relaxation of aortic tissue in this test procedure at a 10^-5 molar bath concentration of the antagonist, generally produces a significant reduction in blood pressure when a sufficient amount is given to the spontaneously hypertensive rat. The following examples illustrate the preparation of a representative number of compounds of this invention. After each example, the Ca^+2 antagonist activity of the compound is presented in terms of percent relaxation (P.R.) at the stated concentration. Similarly, the antihypertensive activity is reported in terms of millimeters mercury (mmHg) blood pressure (B.P.) reduction at the stated time post 50 mg/kg oral dosing.

[2] = test system: spontaneously hypertensive rats; test: Systolic blood pressure lowering in spontaneously hypertensive rats; type: in vivo, rat
Description: The in vivo blood pressure lowering ability of the compounds of this invention was established by measuring the systolic pressure of spontaneously hypertensive rats with a Decker Caudal Plethysmograph or similar sensor device. The compound being tested is administered to groups of four rats and their blood pressure is read prior to compound administration and at 1.5 and 4 hours after compound administration. Depending upon the behavior of the compound being tested, the schedule of blood pressure readings and route of administration is modified. Initially the compounds are administered orally but where compound solubility is a factor, the compounds may be administered parenterally (i.e. i.p., i.m., s.c., i.v., etc.) as desired. The compounds of this invention were initially administered orally at a standard testing dose of 50 mg/kg.
The following examples illustrate the preparation of a representative number of compounds of this invention. After each example, the Ca^+2 antagonist activity of the compound is presented in terms of percent relaxation (P.R.) at the stated concentration. Similarly, the antihypertensive activity is reported in terms of millimeters mercury (mmHg) blood pressure (B.P.) reduction at the stated time post 50 mg/kg oral dosing.

rabbit aortic strips [3] = test: Ca+2 antagonism: relaxation of potassium-contracted rabbit aortic strips; type: cell-based; settings: Oryctolagus cuniculus; 10^-6 M bath concentration; strips contracted with 100 millimoles potassium ion; read-out: percent relaxation (P.R.)
[4] = 1.5 hours post 50 mg/kg oral dosing
[5] = 4 hours post 50 mg/kg oral dosing

SMILES	inhibition at 10 µM (rabbit aortic strips [1]) [%]	blood pressure (B.P.) reduction [2, 4] [mmHg]	blood pressure (B.P.) reduction [2, 5] [mmHg]	inhibition at 1 µM (rabbit aortic strips [3]) [%]
COC(=O)C1=C(C)NC2=C(C(=O)CN(C)C2)C1c1ccccc1[N+](=O)[O-] (centres unmarked) [Example 1, 1,4,5,6,7,8-Hexahydro-2,7-dimethyl-4-(2-nitrophenyl)-5-oxo-1,7-naphthyridine-3-carboxylic acid methyl ester]	14	-27	-21	
COC(=O)C1=C(C)NC2=C(C(=O)CN(C)C2)C1c1ccccc1C (centres unmarked) [Example 2, 1,4,5,6,7,8-Hexahydro-2,7-dimethyl-4-(2-methylphenyl)-5-oxo-1,7-naphthyridine-3-carboxylic acid methyl ester]	31	-57	-28	
COC(=O)C1=C(C)NC2=C(C(=O)CN(Cc3ccccc3)C2)C1c1ccccc1C (centres unmarked) [Example 3, 1,4,5,6,7,8-Hexahydro-2-methyl-4-(2-methylphenyl)-5-oxo-7-(phenylmethyl)-1,7-naphthyridine-3-carboxylic acid methyl ester]		-23	-41	90
COC(=O)C1=C(C)NC2=C(C(=O)CN(C)C2)C1c1ccccc1C(F)(F)F (centres unmarked) [Example 4, 1,4,5,6,7,8-Hexahydro-2,7-dimethyl-5-oxo-4-[2-(trifluoromethyl)-phenyl]-1,7-naphthyridine-3-carboxylic acid methyl ester]	48	-68	-70	
COC(=O)C1=C(C)NC2=C(C(=O)CN(Cc3ccccc3)C2)C1c1ccccc1C(F)(F)F (centres unmarked) [Example 5, 1,4,5,6,7,8-Hexahydro-2-methyl-5-oxo-7-(phenylmethyl)-4-[2-(trifluoromethyl)phenyl]-1,7-naphthyridine-3-carboxylic acid methyl ester]				40
COC(=O)C1=C(C)NC2=C(C(=O)CN(C)C2)C1c1cccc([N+](=O)[O-])c1 (centres unmarked) [Example 6, 1,4,5,6,7,8-Hexahydro-2,7-dimethyl-4-(3-nitrophenyl)-5-oxo-1,7-naphthyridine-3-carboxylic acid methyl ester]	35	-85	-47	
COC(=O)C1=C(C)NC2=C(C(=O)CNC2)C1c1ccccc1C (centres unmarked) [Example 7, 1,4,5,6,7,8-Hexahydro-2-methyl-4-(2-methylphenyl)-5-oxo-1,7-naphthyridine-3-carboxylic acid:methyl ester]	46	-77	-64	
COC(=O)C1=C(C)NC2=C(C(=O)CN(C)C2)C1c1ccccc1Cl (centres unmarked) [Example 8, 4-(2-chlorophenyl)-1,4,5,6,7,8-Hexahydro-2,7-dimethyl-5-oxo-1,7-naphthyridine-3-carboxylic acid methyl ester]	28.3	-54	-30	
COC(=O)C1=C(C)NC2=C(C(=O)CN(C)C2)C1c1c(Cl)cccc1Cl (centres unmarked) [Example 9, 4-(2,6-Dichlorophenyl)-1,4,5,6,7,8-hexahydro-2,7-dimethyl-5-oxo-1,7-naphthyridine-3-carboxylic acid methyl ester]	41.5	-22	-43	
COC(=O)C1=C(C)NC2=C(C(=O)CN(Cc3ccccc3)C2)C1c1cccc([N+](=O)[O-])c1 (centres unmarked) [Example 10, 1,4,5,6,7,8-Hexahydro-2-methyl-4-(3-nitrophenyl)-5-oxo-7-(phenylmethyl)-1,7-naphthyridine-3-carboxylic acid methyl ester]				89.7
COC(=O)C1=C(C)NC2=C(C(=O)CN(C)C2)C1c1cc(C)ccc1C (centres unmarked) [Example 11, 4-(2,5-Dimethylphenyl)-1,4,5,6,7,8-hexahydro-2,7-dimethyl-5-oxo-1,7-naphthyridine-3-carboxylic acid methyl ester]	22			
COC(=O)C1=C(C)NC2=C(C(=O)CNC2)C1c1ccccc1C(F)(F)F (centres unmarked) [Example 12, 1,4,5,6,7,8-Hexahydro-2-methyl-5-oxo-4-[2-(trifluoromethyl)phenyl]-1,7-naphthyridine-3-carboxylic acid methyl ester]	89.1	-88		
COC(=O)C1=C(C)NC2=C(C(=O)CN(Cc3ccccc3)C2)C1c1cccc(C(F)(F)F)c1 (centres unmarked) [Example 14 intermediate, 1,4,5,6,7,8-hexahydro-2-methyl-5-oxo-7-(phenylmethyl)-4-[3-(trifluoromethyl)phenyl]-1,7-naphthyridine-3-carboxylic acid methyl ester hydrochloride]				46.2
COC(=O)C1=C(C)NC2=C(C(=O)CNC2)C1c1cccc(C(F)(F)F)c1 (centres unmarked) [Example 14, 1,4,5,6,7,8-Hexahydro-2-methyl-5-oxo-4-[3-(trifluoromethyl)phenyl]-1,7-naphthyridine-3-carboxylic acid methyl ester]	84	-51	-43	
COC(=O)C1=C(C)NC2=C(C(=O)CN(Cc3ccccc3)C2)C1c1ccccc1F (centres unmarked) [Example 15 intermediate, 4-(2-fluorophenyl)-1,4,5,6,7,8-hexahydro-2-methyl-5-oxo-7-(phenylmethyl)-1,7-naphthyridine-3-carboxylic acid methyl ester hydrochloride]				48
COC(=O)C1=C(C)NC2=C(C(=O)CNC2)C1c1ccccc1F (centres unmarked) [Example 15, 4-(2-Fluorophenyl)-1,4,5,6,7,8-hexahydro-2-methyl-5-oxo-1,7-naphthyridine-3-carboxylic acid methyl ester]	54	-45		
COC(=O)C1=C(C)NC2=C(C(=O)CN(C)C2)C1c1cccc(C#N)c1 (centres unmarked) [Example 16, 4-(3-Cyanophenyl)-1,4,5,6,7,8-Hexahydro-2,7-dimethyl-5-oxo-1,7-naphthyridine-3-carboxylic acid methyl ester]	66	-53		
COC(=O)C1=C(C)NC2=C(C(=O)CN(C)C2)C1c1cccc(C)c1C (centres unmarked) [Example 17, 4-(2,3-Dimethylphenyl)-1,4,5,6,7,8-hexahydro-2,7-dimethyl-5-oxo-1,7-naphthyridine-3-carboxylic acid methyl ester]	54		-40	
CCCCc1ccccc1C1C(C(=O)OC)=C(C)NC2=C1C(=O)CN(Cc1ccccc1)C2 (centres unmarked) [Example 18, 4-[2-(n-butyl)phenyl]-1,4,5,6,7,8-Hexahydro-2-methyl-5-oxo-7-(phenylmethyl)-1,7-naphthyridine-3-carboxylic acid methyl ester]				61
CCCCc1ccccc1C1C(C(=O)OC)=C(C)NC2=C1C(=O)CNC2 (centres unmarked) [Example 19, 4-[2-(n-butyl)phenyl]-1,4,5,6,7,8-hexahydro-2-methyl-5-oxo-1,7-naphthyridine-3-carboxylic acid methyl ester]	49.2	-24		
COC(=O)C1=C(C)NC2=C(C(=O)CN(Cc3ccccc3)C2)C1c1cccc(C)c1C (centres unmarked) [Example 20, 4-(2,3-dimethylphenyl)-1,4,5,6,7,8-hexahydro-2-methyl-5-oxo-7-(phenylmethyl)-1,7-naphthyridine-3-carboxylic acid methyl ester]	80.4	-24	-39	33.3
COC(=O)C1=C(C)NC2=C(C(=O)CNC2)C1c1cccc(C)c1C (centres unmarked) [Example 21, 4-(2,3-dimethylphenyl)-1,4,5,6,7,8-hexahydro-2-methyl-5-oxo-1,7-naphthyridine-3carboxylic acid methyl ester]	76.7	-42	-45	
CC1=C(C(=O)OCCN(C)Cc2ccccc2)C(c2ccccc2C(F)(F)F)C2=C(CN(Cc3ccccc3)CC2=O)N1 (centres unmarked) [Example 22, 1,4,5,6,7,8-Hexahydro-2-methyl-5-oxo-7-phenylmethyl-4-[2-(trifluoromethyl)phenyl]-1,7-naphthyridine-3-carboxylic acid, 2-(N-benzyl-N-methylamino)ethylester]		-74	-68	55.6

From patent US4321384A, “Antihypertensive agents” (American Home Products Corporation, priority 1981, dated 1982)
